From the supplement of paper PMC10627819

Key:
Test in all cases: Bliss interaction score (quartile over a dose matrix) (fitness difference); higher = more antagonism (negative = synergy)
B. subtilis 168 = system: B. subtilis 168
Procedure, shortened: (§1)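 The Bliss score is observed minus expected fitness, where expected fitness is the product of the single-drug fitness values inferred from the combination data. Fitness is the OD595 at the onset of stationary phase over the plate's robust no-drug mean, capped at 1. Scores are summarised by quartiles over technical, biological and donor/recipient replicates.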

S. aureus DSM 20231 = system: S. aureus DSM 20231
Procedure, shortened: as §1

S. aureus Newman = system: S. aureus Newman
Procedure, shortened: as §1

S. pneumoniae D39V = system: S. pneumoniae D39V
Procedure, shortened: as §1
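Also: first quartile when negative (synergy) and third quartile when positive (antagonism).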

Row | SMILES | Bliss interaction score (B. subtilis 168) | Bliss interaction score (S. aureus DSM 20231) | Bliss interaction score (S. aureus Newman) | Bliss interaction score (S. pneumoniae D39V)
1 | CN(C)[C@@H]1C(O)=C(C(N)=O)C(=O)[C@@]2(O)C(O)=C3C(=O)c4c(O)ccc(Cl)c4[C@@](C)(O)[C@H]3C[C@@H]12 [Clortetracycline] + Cn1nnc(-c2ccc(-c3ccc(N4C[C@H](CO)OC4=O)cc3F)cn2)n1 [Tedizolid] | -0.105 | -0.0502 | -0.0562 | 0.0607
2 | N#CC(C#N)=NNc1cccc(Cl)c1 [CCCP] + O=C(O)c1cn(C2CC2)c2cc(N3CCNCC3)c(F)cc2c1=O [Ciprofloxacin] | -0.0456 | -0.0358 | -0.0497 | 0.0549
3 | CO/N=C(\C(=O)N[C@@H]1C(=O)N2C(C(=O)O)=C(COC(C)=O)CS[C@H]12)c1csc(N)n1 [Cefotaxime] + Oc1cc(Cl)ccc1Oc1ccc(Cl)cc1Cl [Triclosan] | 0.0558 | 0.0696 | 0.033 | -0.0421
4 | O=C(O)c1cn(C2CC2)c2cc(N3CCNCC3)c(F)cc2c1=O [Ciprofloxacin] + CN(C)[C@@H]1C(O)=C(C(N)=O)C(=O)[C@@]2(O)C(O)=C3C(=O)c4c(O)ccc(Cl)c4[C@@](C)(O)[C@H]3C[C@@H]12 [Clortetracycline] | 0.199 | 0.104 | 0.119 | -0.035
5 | N#CC(C#N)=NNc1cccc(Cl)c1 [CCCP] + CC[C@H]1OC(=O)[C@H](C)C(=O)[C@H](C)[C@@H](O[C@@H]2O[C@H](C)C[C@H](N(C)C)[C@H]2O)[C@](C)(OC)C[C@@H](C)C(=O)[C@H](C)[C@H]2N(CCCCn3cnc(-c4cccnc4)c3)C(=O)O[C@]12C [Telithromycin] | -0.0441 | -0.0246 | -0.0206 | -0.0245
6 | CC(=O)Oc1ccccc1C(=O)O [Acetylsalicylicacid] + Cc1ncc([N+](=O)[O-])n1CCO [Metronidazole] | 0.203 | 0.0605 | -0.0652 | 0.056
7 | N#CC(C#N)=NNc1cccc(Cl)c1 [CCCP] + CO[C@H]1/C=C/O[C@@]2(C)Oc3c(C)c(O)c4c(O)c(c(/C=N/N5CCN(C)CC5)c(O)c4c3C2=O)NC(=O)/C(C)=C\C=C\[C@H](C)[C@H](O)[C@@H](C)[C@@H](O)[C@@H](C)[C@H](OC(C)=O)[C@@H]1C [Rifampicin] | -0.0783 | 0.0329 | 0.0395 | 0.0879
8 | CO/N=C(\C(=O)N[C@@H]1C(=O)N2C(C(=O)O)=C(COC(C)=O)CS[C@H]12)c1csc(N)n1 [Cefotaxime] + O=C(O)c1cn(C2CC2)c2cc(N3CCNCC3)c(F)cc2c1=O [Ciprofloxacin] | -0.144 | -0.0413 | 0.0294 | 0.154
9 | CC1(C)S[C@@H]2[C@H](NC(=O)Cc3ccccc3)C(=O)N2[C@H]1C(=O)O [PenicillinG] + COc1cc(Cc2cnc(N)nc2N)cc(OC)c1OC [Trimethoprim] | -0.131 | -0.0299 | -0.0822 | 0.101
10 | CN(C)[C@@H]1C(O)=C(C(N)=O)C(=O)[C@@]2(O)C(O)=C3C(=O)c4c(O)ccc(Cl)c4[C@@](C)(O)[C@H]3C[C@@H]12 [Clortetracycline] + O=C(O[C@@H]1Cc2c(O)cc(O)cc2O[C@@H]1c1cc(O)c(O)c(O)c1)c1cc(O)c(O)c(O)c1 [EGCG] | -0.096 | 0.114 | -0.0462 | -0.0892
11 | CC1(C)S[C@@H]2[C@H](NC(=O)Cc3ccccc3)C(=O)N2[C@H]1C(=O)O [PenicillinG] + CN[C@H](CC(C)C)C(=O)N[C@H]1C(=O)N[C@@H](CC(N)=O)C(=O)N[C@H]2C(=O)N[C@H]3C(=O)N[C@H](C(=O)N[C@H](C(=O)O)c4cc(O)cc(O)c4-c4cc3ccc4O)[C@H](O)c3ccc(c(Cl)c3)Oc3cc2cc(c3O[C@@H]2O[C@H](CO)[C@@H](O)[C@H](O)[C@H]2O[C@H]2C[C@](C)(N)[C@H](O)[C@H](C)O2)Oc2ccc(cc2Cl)[C@H]1O [Vancomycin] | -0.039 | -0.0205 | 0.0603 | -0.162
12 | O=C(O)c1cn(C2CC2)c2cc(N3CCNCC3)c(F)cc2c1=O [Ciprofloxacin] + N[C@@H]1CONC1=O [CycloserineD] | -0.0971 | -0.0461 | -0.105 | 0.0695
13 | CO/N=C(\C(=O)N[C@@H]1C(=O)N2C(C(=O)O)=C(COC(C)=O)CS[C@H]12)c1csc(N)n1 [Cefotaxime] + CC[C@H]1OC(=O)[C@H](C)C(=O)[C@H](C)[C@@H](O[C@@H]2O[C@H](C)C[C@H](N(C)C)[C@H]2O)[C@](C)(OC)C[C@@H](C)C(=O)[C@H](C)[C@H]2N(CCCCn3cnc(-c4cccnc4)c3)C(=O)O[C@]12C [Telithromycin] | 0.0749 | 0.0754 | -0.033 | 0.0507
14 | CN(C)[C@@H]1C(O)=C(C(N)=O)C(=O)[C@@]2(O)C(O)=C3C(=O)c4c(O)ccc(Cl)c4[C@@](C)(O)[C@H]3C[C@@H]12 [Clortetracycline] + C[n+]1ccc(-c2cc[n+](C)cc2)cc1 [Paraquat] | 0.0974 | 0.0363 | -0.0418 | -0.026
